Experimental data from US10316017B2, “COT modulators and methods of use thereof” (Gilead Sciences, Inc., priority 2015, dated 2019).
pEC50, pIC50: −log10 of the molar value.

Experiments:
[1] = target: T1, human Cot catalytic domain (30-397 amino acids) (Homo sapiens, UniProt P41279); assay: High Throughput Cot Biochemical Assay (KinEASE TR-FRET); conditions: Cot biochemical HTRF (KinEASE TR-FRET) assay; read-out: IC50 HTRF
T1 construct: Purified recombinant human Cot catalytic domain (30-397 amino acids) was purchased from Cama Biosciences; purchased Cama Biosciences (so in the source)
T1 sequence (P41279 30-397): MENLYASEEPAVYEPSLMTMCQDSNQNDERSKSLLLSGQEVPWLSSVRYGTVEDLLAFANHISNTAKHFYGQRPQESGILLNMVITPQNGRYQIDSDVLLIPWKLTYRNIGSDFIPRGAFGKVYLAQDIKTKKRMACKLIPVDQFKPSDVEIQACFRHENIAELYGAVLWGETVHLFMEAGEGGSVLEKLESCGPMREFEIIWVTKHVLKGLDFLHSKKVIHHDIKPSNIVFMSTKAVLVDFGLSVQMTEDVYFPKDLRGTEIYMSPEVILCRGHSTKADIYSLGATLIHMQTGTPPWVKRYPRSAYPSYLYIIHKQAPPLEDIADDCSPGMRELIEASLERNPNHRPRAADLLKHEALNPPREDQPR
Procedure, shortened: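 TR-FRET readout: Eu-labeled phospho-specific antibody binds XL665-tagged STK3 peptide after phosphorylation by Cot (aa 30-397, 5 nM). Conditions: 400 μM ATP, 1 μM peptide, MOPS pH 7.0 buffer with MgOAc, DTT, BSA, NP-40, glycerol; 0.1% DMSO.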

[2] = test system: TNFα production in LPS-stimulated human monocytes; assay: Cot Monocyte TNFα Cell Based Assay; conditions: Homo sapiens, Monocyte, TNFα in LPS-stimulated human monocytes; read-out: EC50 TNF
Procedure, shortened: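 TR-FRET read-out of total secreted TNFα, normalized as % control (unstimulated = 0%, LPS-stimulated = 100%). Cells (5,000/well) were exposed to compound 1 h at 37 °C, then to 50 pg/ml LPS for a further 4 h.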

| SMILES | pIC50 [1] | pEC50 [2] |
| --- | --- | --- |
| N#Cc1cnc2c(Cl)cc(NC(c3ccccc3)c3nn[nH]c3CN3CCOCC3)cc2c1Nc1ccc(F)c(Cl)c1 (centres unmarked) [Example 519, 8-chloro-4-((3-chloro-4-fluorophenyl)amino)-6-(((5-(morpholinomethyl)-1H-1,2,3-triazol-4-yl)(phenyl)methyl)amino) quinoline-3-carbonitrile] | 6.52 | 5.50 |
| CC(C)(C)N1CCC(n2cc([C@@H](Nc3cc(Cl)c4ncc(C#N)c(NS(=O)(=O)c5ccccc5)c4c3)c3ccccc3)nn2)CC1 [Example 520, (S)-N-(6-(((1-(1-(tert-butyl)piperidin-4-yl)-1H-1,2,3-triazol-4-yl)(phenyl)methyl)amino)-8-chloro-3-cyanoquinolin-4-yl)benzenesulfonamide] | < 5.00 | < 5.00 |
| CC(C)(C)N1CCC(n2cc([C@@H](Nc3cc(Cl)c4ncc(C#N)c(Nc5cnc(Cl)c(F)c5)c4c3)c3ccccc3)nn2)CC1 [Example 521, (S)-6-(((1-(1-(tert-butyl)piperidin-4-yl)-1H-1,2,3-triazol-4-yl)(phenyl)methyl)amino)-8-chloro-4-((6-chloro-5-fluoropyridin-3-yl)amino)quinoline-3-carbonitrile] | 7.39 | 6.03 |
| C[C@H](Nc1c(C#N)cnc2c(Cl)cc(N[C@@H](c3ccccc3)c3cn(C4CCN(C(C)(C)C)CC4)nn3)cc12)C1CCOCC1 [Example 522, 6-(((S)-(1-(1-(tert-butyl)piperidin-4-yl)-1H-1,2,3-triazol-4-yl)(phenyl)methyl)amino)-8-chloro-4-(((S)-1-(tetrahydro-2H-pyran-4-yl)ethyl)amino)quinoline-3-carbonitrile] | 6.10 | 5.01 |
| C[C@@H](Nc1c(C#N)cnc2c(Cl)cc(N[C@@H](c3ccccc3)c3cn(C4CCN(C(C)(C)C)CC4)nn3)cc12)C1CCCCC1 [Example 523, 6-(((S)-(1-(1-(tert-butyl)piperidin-4-yl)-1H-1,2,3-triazol-4-yl)(phenyl)methyl)amino)-8-chloro-4-(((R)-1-cyclohexylethyl)amino) quinoline-3-carbonitrile] | 6.52 | 5.31 |
| C[C@@H](Nc1c(C#N)cnc2c(Cl)cc(N[C@@H](c3ccccc3)c3cn(C4CCN(C(C)(C)C)CC4)nn3)cc12)C1CCOCC1 [Example 524, 6-(((S)-(1-(1-(tert-butyl)piperidin-4-yl)-1H-1,2,3-triazol-4-yl)(phenyl)methyl)amino)-8-chloro-4-(((R)-1-(tetrahydro-2H-pyran-4-yl)ethyl)amino) quinoline-3-carbonitrile] | 6.10 | < 5.00 |
| CC(C)(C)N1CCC(n2cc([C@@H](Nc3cc(Cl)c4ncc(C#N)c(Nc5ccc(F)c(OC(F)(F)F)c5)c4c3)c3ccccc3)nn2)CC1 [Example 525, (S)-6-(((1-(1-(tert-butyl)piperidin-4-yl)-1H-1,2,3-triazol-4-yl)(phenyl)methyl)amino)-8-chloro-4-((4-fluoro-3-(trifluoromethoxy)phenyl)amino)quinoline-3-carbonitrile] | 6.14 | 5.37 |
| CC(C)(C)N1CCC(n2cc([C@@H](Nc3cc(Cl)c4ncc(C#N)c(Nc5cccc(Cl)c5Cl)c4c3)c3ccccc3)nn2)CC1 [Example 526, (S)-6-(((1-(1-(tert-butyl)piperidin-4-yl)-1H-1,2,3-triazol-4-yl)(phenyl)methyl)amino)-8-chloro-4-((2,3-dichlorophenyl)amino) quinoline-3-carbonitrile] | 7.62 | 6.30 |
| CC(C)(C)N1CCC(n2cc([C@@H](Nc3cc(Cl)c4ncc(C#N)c(Nc5cc(Cl)ccc5Cl)c4c3)c3ccccc3)nn2)CC1 [Example 527, (S)-6-(((1-(1-(tert-butyl)piperidin-4-yl)-1H-1,2,3-triazol-4-yl)(phenyl)methyl)amino)-8-chloro-4-((2,5-dichlorophenyl)amino) quinoline-3-carbonitrile] | 7.28 | 5.86 |

The remaining lines, values ahead:

| pIC50 [1] | pEC50 [2] | SMILES |
| --- | --- | --- |
| 7.27 | 6.08 | N#Cc1cnc2c(Cl)cc(N[C@@H](c3cccc(N4CCCS4(=O)=O)c3)c3c[nH]nn3)cc2c1Nc1ccc(Cl)c(Cl)c1F [Example 528, (S)-8-chloro-4-((3,4-dichloro-2-fluorophenyl)amino)-6-(((3-(1,1-dioxidoisothiazolidin-2-yl)phenyl)(1H-1,2,3-triazol-4-yl)methyl)amino)quinoline-3-carbonitrile] |
| 8.70 | 7.15 | N#Cc1cnc2c(Cl)cc(N[C@@H](c3ccccc3)c3cn(C4[C@H]5CNC[C@@H]45)nn3)cc2c1Nc1ccc(F)c(Cl)c1 (stereo partly drawn) [Example 529, 6-(((S)-(1-((1R,5S,6s)-3-azabicyclo[3.1.0]hexan-6-yl)-1H-1,2,3-triazol-4-yl)(phenyl)methyl)amino)-8-chloro-4-((3-chloro-4-fluorophenyl)amino) quinoline-3-carbonitrile] |
| 6.70 | < 5.00 | CC[N+](C)(CC)CCn1cc([C@@H](Nc2cc(Cl)c3ncc(C#N)c(Nc4ccc(Cl)c(Cl)c4F)c3c2)c2ccccc2)nn1 [Example 530, (S)-2-(4-(((8-chloro-3-cyano-4-((3,4-dichloro-2-fluorophenyl)amino)quinolin-6-yl)amino)(phenyl)methyl)-1H-1,2,3-triazol-1-yl)-N,N-diethyl-N-methylethan-1-aminium] |
| 7.80 | 6.31 | N#Cc1cnc2c(Cl)cc(N[C@@H](c3cccc(N4CCCC4=O)c3)c3c[nH]nn3)cc2c1Nc1ccc(Cl)c(Cl)c1F [Example 531, (S)-8-chloro-4-((3,4-dichloro-2-fluorophenyl)amino)-6-(((3-(2-oxopyrrolidin-1-yl)phenyl)(1H-1,2,3-triazol-4-yl)methyl)amino)quinoline-3-carbonitrile] |
| < 5.00 | < 5.00 | CC[C@@H](Nc1c(C#N)cnc2c(Cl)cc(N[C@@H](c3c[nH]nn3)c3ccccc3Cl)cc12)c1ccccc1 [Example 532, 8-chloro-6-(((R)-(2-chlorophenyl)(1H-1,2,3-triazol-4-yl)methyl)amino)-4-(((R)-1-phenylpropyl)amino)quinoline-3-carbonitrile] |
| 7.14 | 6.18 | CC[C@@H](Nc1c(C#N)cnc2c(Cl)cc(N[C@H](c3c[nH]nn3)c3ccccc3Cl)cc12)c1ccccc1 [Example 533, 8-chloro-6-(((S)-(2-chlorophenyl)(1H-1,2,3-triazol-4-yl)methyl)amino)-4-(((R)-1-phenylpropyl)amino) quinoline-3-carbonitrile] |
| 7.24 | 5.50 | N#Cc1cnc2c(Cl)cc(N[C@@H](c3ccccc3)c3cn(C4CCCC4)nn3)cc2c1Nc1ccc(Cl)c(Cl)c1F [Example 534, (S)-8-chloro-6-(((1-cyclopentyl-1H-1,2,3-triazol-4-yl)(phenyl)methyl)amino)-4-((3,4-dichloro-2-fluorophenyl)amino) quinoline-3-carbonitrile] |
| 8.40 | 6.30 | N#Cc1cnc2c(Cl)cc(N[C@@H](c3ccccc3)c3cn([C@@H]4CCNC[C@H]4O)nn3)cc2c1Nc1cccc(Cl)c1 [Example 535, 8-chloro-4-((3-chlorophenyl)amino)-6-(((S)-(1-((3R,4R)-3-hydroxypiperidin-4-yl)-1H-1,2,3-triazol-4-yl)(phenyl)methyl)amino) quinoline-3-carbonitrile] |
| 8.52 | 7.08 | CC[C@@H](Nc1c(C#N)cnc2c(Cl)cc(N[C@@H](c3ccccc3)c3cn(CCCN4CCCC4)nn3)cc12)c1ccccc1 [Example 536, 8-chloro-6-(((S)-phenyl (1-(3-(pyrrolidin-1-yl)propyl)-1H-1,2,3-triazol-4-yl)methyl)amino)-4-(((R)-1-phenylpropyl)amino)quinoline-3-carbonitrile] |
| 7.77 | 6.34 | CC[C@@H](Nc1c(C#N)cnc2c(Cl)cc(N[C@@H](c3ccc(F)cc3)c3c[nH]nn3)cc12)c1ccccc1 [Example 537, 8-chloro-6-(((S)-(4-fluorophenyl)(1H-1,2,3-triazol-4-yl)methyl)amino)-4-(((R)-1-phenylpropyl)amino) quinoline-3-carbonitrile] |
| 8.52 | 7.24 | CC[C@@H](Nc1c(C#N)cnc2c(Cl)cc(N[C@@H](c3ccc(F)cc3)c3cn(C4CCN(C(C)(C)C)CC4)nn3)cc12)c1ccccc1 [Example 538, 6-(((S)-(1-(1-(tert-butyl)piperidin-4-yl)-1H-1,2,3-triazol-4-yl)(4-fluorophenyl)methyl)amino)-8-chloro-4-(((R)-1-phenylpropyl)amino) quinoline-3-carbonitrile] |
| 6.47 | 5.51 | CC(C)(C)N1CCC(n2cc([C@@H](Nc3cc(Cl)c4ncc(C#N)c(N[C@H]5CCCOC5)c4c3)c3ccccc3)nn2)CC1 [Example 539, 6-(((S)-(1-(1-(tert-butyl)piperidin-4-yl)-1H-1,2,3-triazol-4-yl)(phenyl)methyl)amino)-8-chloro-4-(((S)-tetrahydro-2H-pyran-3-yl)amino)quinoline-3-carbonitrile] |
| 6.39 | 5.29 | CC(C)(C)N1CCC(n2cc([C@@H](Nc3cc(Cl)c4ncc(C#N)c(N[C@@H]5CCCOC5)c4c3)c3ccccc3)nn2)CC1 [Example 540, 6-(((S)-(1-(1-(tert-butyl)piperidin-4-yl)-1H-1,2,3-triazol-4-yl)(phenyl)methyl)amino)-8-chloro-4-(((R)-tetrahydro-2H-pyran-3-yl)amino) quinoline-3-carbonitrile] |
